Earlier results, collected in patent publication US20070185094A1, “Novel 3-substitued-1,4-benzodiazepines” (ASTON UNIVERSITY, priority 2003, published 2007).

Legend:
[1] = molecular target: CCKB receptor; details: cited from earlier work
[2] = mice, after intravenous injections; cited from earlier work
[3] = satiated rats; cited from earlier work
[4] = as the HCl salt; cited from earlier work

Row | Structure (SMILES) | IC50 [1] | affinity for gastrin/CCKB receptors relative to pancreatic CCKA [1] | selectivity for CCKB receptors over CCKA [1] | brain uptake [2] | potency relative to Devazepide in increasing feeding frequency [3] | water solubility compared to L-365,260 [4]
1 | Cc1cccc(NC(=O)N[C@@H]2N=C(c3ccccc3)c3ccccc3N(C)C2=O)c1 [L-365,260] | 8.5 nM | 80 fold | 87 fold | < 0.8 % dose/gram | 100 times | 
2 | Cc1cccc(NC(=O)NC2N=C(N3CC4CCC(C4)C3)c3ccccc3N(C)C2=O)c1 [L-740,093] |  |  |  |  |  | one hundred fold improved
